Source: patent publication US20260207519A1, “ISOLATED TARGETED DELIVERY SYSTEM FOR THE TREATMENT OF OVARIAN CANCER” (CELLIS SP. Z O.O. [LTD.], priority 2022, published 2026)

Test system: A2780_luc tumors
Assay: 3rd in vivo study: A2780_luc orthotopic xenograft model
Design: species or system female Balb/c nude mice
Settings: vehicle 13 days; Kaplan-Meier, log-rank test
Description: FIG. 14: The Kaplan-Meier survival curve of female nude mice implanted […] with A2780_luc tumors. N=8 for both groups initially. Statistical analysis was carried out using log-rank (Mantel-Cox) test.
All in vivo studies were performed using female Balb/c nude mice at age 5-8 weeks. Animals were imaged using an In Vivo Imaging System (IVIS, Newton 7.0, Vilber).
A2780_luc or A2780-cis_luc cells were orthotopically implanted into both ovaries of mice. 5 days after implant mice were imaged using IVIS and those with most similar bioluminescent intensity values were assigned to the following treatment groups: […]

N.N.[Cl][Pt][Cl] [cisplatin, Cisplatin]
median survival: 14.5 days
